Results taken from patent US9409952B2, “Peptide-compound cyclization method” (Chugai Seiyaku Kabushiki Kaisha, priority 2011, dated 2016).
Where two headings read alike, the source gives them in different places. Starred links: 1 amine or outer side, 2 acyl side, 3 side chain; linkers in the order of their positions; H or OH if unused. Positions of bridges follow the written chain, without caps; N, C: chain ends. Non-standard residues stand in square brackets, D forms with d. Residues, ends and D or L forms follow the SMILES beside them. *: point of attachment. Ala(4-thiazolyl) = N[C@@H](Cc1cscn1)C(=O)O; NMeF = CN[C@@H](Cc1ccccc1)C(=O)O; NMeI = CC[C@H](C)[C@H](NC)C(=O)O; NMeβAla = CN(CCC(=O)[*:2])[*:1]; NMeL = CN[C@@H](CC(C)C)C(=O)O; NMeV = CN[C@H](C(=O)O)C(C)C; NMeS = CN[C@@H](CO)C(=O)O; NMeA = CN[C@@H](C)C(=O)O; Piperidide = C1CCN(*)CC1; dNMeA = CN[C@H](C)C(=O)O; β3hA = C[C@H](N)CC(=O)O; Sar = CNCC(=O)O; tBu = CC(C)(C)*

How the values were obtained:
[1] = Metabolic stability in human hepatic microsome; type: in vitro ADME
[2] = PAMPA (parallel artificial membrane permeability assay); type: in vitro ADME; settings: PAMPA
Outline: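 Artificial membrane was 10% (w/v) egg lecithin plus 0.5% (w/v) cholesterol in dodecane on a PVDF filter. A 10 mM DMSO stock was added at 0.5% (v/v) to donor buffer (50 mM MOPSO, pH 6.5, 5.0% glycocholic acid). After 18 h at 37 °C, LC/MS or LC/UV gave donor and acceptor levels for Pe.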

[3] = microsomes, pH 7.4, human hepatic microsome, NADPH(+), read-out: CL NADPH(+)
[4] = membrane permeation rate (Pe), 50 mM MOPSO buffer pH 6.5 with 5.0% glycocholic acid, 37° C., 18 hours, read-out: iPAMPA Pe
[5] = human, microsomes, pH 7.4, CL NADPH(+)

Which microsomal CLint at 1 uM [1, 3] does the source give for CC[C@H](C)[C@@H]1NC(=O)[C@H](Cc2ccccc2)N(C)C(=O)[C@@H](C)NC(=O)C[C@@H](C(=O)N(C)[C@@H](Cc2ccccc2)C(=O)N(C)[C@@H](Cc2ccccc2)C(=O)N[C@@H](C)C(=O)N2CCCCC2)NC(=O)[C@H](C(C)C)NC(=O)CN(C)C(=O)[C@H]([C@@H](C)O)NC1=O [DP-569] ([dA][NMeF]IT[Sar]VD[NMeF][NMeF]A-Piperidide; lactam N-7) here?
The microsomal CLint at 1 uM was 203 µL/min/mg.

And the Papp at 18 hours, 50 µM [2, 4]?
The Papp at 18 hours, 50 µM was 21 ×10⁻⁶ cm/s.

With CC[C@H](C)[C@H]1C(=O)N[C@@H](C)CC(=O)N(C)[C@H](C)C(=O)N(C)[C@@H](CC(C)C)C(=O)N(C)[C@@H](CC(C)C)C(=O)N[C@@H]([C@@H](C)O)C(=O)N(C)CC(=O)N[C@@H](COC(C)(C)C)C(=O)N(C)[C@@H](CC(C)C)C(=O)N1C [DP-800] (cyclo([NMeI][β3hA][dNMeA][NMeL][NMeL]T[Sar]S(tBu)[NMeL])) as the molecule, how does the microsomal CLint at 1 uM [1, 3] read?
Its microsomal CLint at 1 uM is 58 µL/min/mg.

And the Papp at 18 hours, 50 µM [2, 4]?
Its Papp at 18 hours, 50 µM is 25 ×10⁻⁶ cm/s.

Which microsomal CLint at 1 uM [1, 3] does the source give for CC[C@H](C)[C@@H]1NC(=O)[C@H](Cc2ccccc2)N(C)C(=O)[C@H](C)N(C)C(=O)[C@H]([C@@H](C)O)NC(=O)[C@H](CC(C)C)N(C)C(=O)[C@H](C)N(C)C(=O)C[C@@H](C(=O)N(C)[C@@H](Cc2ccccc2)C(=O)N[C@@H](C)C(=O)N2CCCCC2)NC(=O)[C@H](C(C)C)N(C)C(=O)[C@H](CC(C)C)N(C)C(=O)CN(C)C1=O [DP-492] ([NMeA][NMeL]T[NMeA][NMeF]I[Sar][NMeL][NMeV]D[NMeF]A-Piperidide; lactam N-10) here?
Its microsomal CLint at 1 uM is 61 µL/min/mg.

And the Papp at 18 hours, 50 µM [2, 4]?
The Papp at 18 hours, 50 µM was 20 ×10⁻⁶ cm/s.

For CC[C@H](C)[C@@H]1NC(=O)[C@@H](C)N(C)C(=O)C[C@@H](C(=O)N(C)[C@@H](Cc2ccccc2)C(=O)N[C@@H](C)C(=O)N2CCCCC2)NC(=O)[C@H](Cc2ccccc2)N(C)C(=O)CN(C)C(=O)[C@H]([C@@H](C)O)NC(=O)[C@H](C)N(C)C(=O)[C@H](C(C)C)N(C)C(=O)[C@H](Cc2ccccc2)NC(=O)[C@H](CC(C)C)N(C)C(=O)[C@H](CC(C)C)N(C)C1=O [DP-183] ([dNMeA]I[NMeL][NMeL]F[NMeV][NMeA]T[Sar][NMeF]D[NMeF]A-Piperidide; lactam N-11), which microsomal CLint at 1 uM [1, 3] is on record?
The microsomal CLint at 1 uM was 25 µL/min/mg.

And the Papp at 18 hours, 50 µM [2, 4]?
Its Papp at 18 hours, 50 µM is 29 ×10⁻⁶ cm/s.

What does the source list for CC(C)C[C@H]1C(=O)N[C@@H](C(C)C)C(=O)N(C)[C@@H](Cc2ccccc2)C(=O)N(C)[C@@H](CC(C)C)C(=O)N(C)[C@@H](CC(C)C)C(=O)N[C@H](C(=O)N(C)[C@@H](Cc2ccccc2)C(=O)N(C)[C@@H](Cc2ccccc2)C(=O)N[C@@H](C)C(=O)N2CCCCC2)CC(=O)N(C)CCC(=O)N[C@@H]([C@@H](C)O)C(=O)N(C)[C@@H](C)C(=O)N1C [DP-397] ([NMeβAla]T[NMeA][NMeL]V[NMeF][NMeL][NMeL]D[NMeF][NMeF]A-Piperidide; lactam N-9)?
microsomal CLint at 1 uM [1, 5]: 92 µL/min/mg; Papp at 18 hours, 50 µM ([2]; pH 6.5): 11 ×10⁻⁶ cm/s

Which microsomal CLint at 1 uM [1, 3] does the source give for CC(C)C[C@H]1C(=O)N[C@@H]([C@@H](C)O)C(=O)N(C)[C@@H](C)C(=O)N[C@H](C(=O)N(C)[C@@H](Cc2ccccc2)C(=O)N[C@@H](C)C(=O)N2CCCCC2)CC(=O)N(C)CCC(=O)N(C)[C@@H](C(C)C)C(=O)N(C)[C@@H](Cc2ccccc2)C(=O)N(C)[C@@H](Cc2ccccc2)C(=O)N[C@@H](C)C(=O)N(C)[C@@H](C)C(=O)N1C [DP-370] ([NMeβAla][NMeV][NMeF][NMeF]A[NMeA][NMeL]T[NMeA]D[NMeF]A-Piperidide; lactam N-10) here?
Its microsomal CLint at 1 uM is 36 µL/min/mg.

What about the Papp at 18 hours, 50 µM [2, 4] of the same molecule?
The Papp at 18 hours, 50 µM was 25 ×10⁻⁶ cm/s.

Which microsomal CLint at 1 uM [1, 3] does the source give for CC(C)C[C@@H]1NC(=O)[C@H](C)NC(=O)C[C@@H](C(=O)N2CCCCC2)NC(=O)[C@H](Cc2ccccc2)N(C)C(=O)[C@H](CC(C)C)N(C)C(=O)[C@H](C)NC(=O)[C@H](Cc2ccccc2)N(C)C(=O)[C@H](CC(C)C)N(C)C1=O [DP-673] (AL[NMeL][NMeF]A[NMeL][NMeF]D-Piperidide; lactam N-8) here?
The microsomal CLint at 1 uM was 631 µL/min/mg.

What about the Papp at 18 hours, 50 µM [2, 4] of the same molecule?
The Papp at 18 hours, 50 µM was 30 ×10⁻⁶ cm/s.

With CC(C)C[C@H]1C(=O)N(C)[C@@H](CC(C)C)C(=O)N(C)[C@@H](Cc2ccccc2)C(=O)N(C)[C@@H](CC(C)C)C(=O)N[C@H](C(=O)N(C)[C@@H](Cc2ccccc2)C(=O)N[C@@H](C)C(=O)N2CCCCC2)CC(=O)N(C)CC(=O)N[C@@H]([C@@H](C)O)C(=O)N(C)[C@@H](Cc2ccccc2)C(=O)N(C)[C@@H](CC(C)C)C(=O)N[C@@H](C)C(=O)N1C [DP-493] ([Sar]T[NMeF][NMeL]A[NMeL][NMeL][NMeF][NMeL]D[NMeF]A-Piperidide; lactam N-10) as the molecule, how does the microsomal CLint at 1 uM [1, 3] read?
Its microsomal CLint at 1 uM is 52 µL/min/mg.

And the Papp at 18 hours, 50 µM [2, 4]?
Its Papp at 18 hours, 50 µM is 2.4 ×10⁻⁶ cm/s.

Which microsomal CLint at 1 uM [1, 5] does the source give for CC[C@H](C)[C@H]1C(=O)N[C@H](C(=O)N2CCCCC2)CC(=O)N(C)[C@H](C)C(=O)N(C)[C@@H](Cc2ccccc2)C(=O)N(C)[C@@H](CC(C)C)C(=O)N[C@@H]([C@@H](C)O)C(=O)N(C)CC(=O)N[C@@H](COC(C)(C)C)C(=O)N(C)[C@@H](CC(C)C)C(=O)N1C [DP-81] ([dNMeA][NMeF][NMeL]T[Sar]S(tBu)[NMeL][NMeI]D-Piperidide; lactam N-9) here?
Its microsomal CLint at 1 uM is 38 µL/min/mg.

And the Papp at 18 hours, 50 µM ([2]; pH 6.5)?
The Papp at 18 hours, 50 µM was 25 ×10⁻⁶ cm/s.

Which results are given for CC(C)C[C@@H]1NC(=O)[C@H](CC(C)C)N(C)C(=O)[C@H](C)N(C)C(=O)[C@@H](C(C)C)NC(=O)C[C@@H](C(=O)N2CCCCC2)NC(=O)[C@H]([C@@H](C)O)NC(=O)[C@H](Cc2ccccc2)N(C)C(=O)[C@H](C)N(C)C(=O)[C@H](CC(C)C)N(C)C(=O)[C@H](Cc2cscn2)NC(=O)[C@H](Cc2ccccc2)N(C)C1=O [DP-625] ([dV][NMeA][NMeL]L[NMeF][Ala(4-thiazolyl)][NMeL][NMeA][NMeF]TD-Piperidide; lactam N-11)?
microsomal CLint at 1 uM [1, 3]: 27 µL/min/mg; Papp at 18 hours, 50 µM [2, 4]: 26 ×10⁻⁶ cm/s

What does the source list for CC[C@H](C)[C@H]1C(=O)NCC(=O)N(C)[C@@H](CC(C)C)C(=O)N[C@@H](CC(C)C)C(=O)N[C@H](C(=O)N2CCCCC2)CC(=O)N(C)CCC(=O)N(C)[C@@H](C)C(=O)N[C@@H](CC(C)C)C(=O)N[C@@H]([C@@H](C)O)C(=O)N2CCC[C@H]2C(=O)N[C@@H](Cc2ccccc2)C(=O)N(C)[C@@H](Cc2ccccc2)C(=O)N1C [DP-91] ([NMeβAla][NMeA]LTPF[NMeF][NMeI]G[NMeL]LD-Piperidide; lactam N-12)?
microsomal CLint at 1 uM [1, 5]: 58 µL/min/mg; Papp at 18 hours, 50 µM ([2]; pH 6.5): 20 ×10⁻⁶ cm/s

For CC[C@H](C)[C@H]1C(=O)N[C@@H](CC(C)C)C(=O)N(C)[C@@H](C)C(=O)N(C)[C@@H](Cc2ccccc2)C(=O)NCC(=O)N[C@@H]([C@@H](C)O)C(=O)N[C@@H](Cc2ccccc2)C(=O)N(C)[C@@H](CC(C)C)C(=O)N2CCC[C@H]2C(=O)N[C@H](C(=O)N2CCCCC2)CC(=O)N[C@H](C(C)C)C(=O)N[C@@H](CC(C)C)C(=O)N1C [DP-218] ([dV]L[NMeI]L[NMeA][NMeF]GTF[NMeL]PD-Piperidide; lactam N-12), which microsomal CLint at 1 uM ([1]; human, liver microsomes, pH 7.4, human hepatic microsome, NADPH(+), read-out: CL NADPH(+)) is on record?
Its microsomal CLint at 1 uM is 18 µL/min/mg.

What about the Papp at 18 hours, 50 µM [2, 4] of the same molecule?
The Papp at 18 hours, 50 µM was 33 ×10⁻⁶ cm/s.

With CC(C)C[C@@H]1NC(=O)[C@H](CO)N(C)C(=O)[C@H](CC(C)C)N(C)C(=O)[C@H](CC(C)C)N(C)C(=O)[C@H](CC(C)C)N(C)C(=O)[C@@H](C)NC(=O)[C@H](C)NC(=O)[C@H](CC(C)C)N(C)C(=O)C[C@H](C)NC(=O)[C@H](CC(C)C)N(C)C(=O)CN(C)C1=O [DP-649] (cyclo(A[dA][NMeL][NMeL][NMeL][NMeS]L[Sar][NMeL][β3hA][NMeL])) as the molecule, how does the microsomal CLint at 1 uM [1, 3] read?
Its microsomal CLint at 1 uM is 27 µL/min/mg.

What about the Papp at 18 hours, 50 µM [2, 4] of the same molecule?
Its Papp at 18 hours, 50 µM is 22 ×10⁻⁶ cm/s.
